Experimental data as given in patent publication US20190307843A1, “SINGLE DOSE METHODS FOR PREVENTING AND TREATING FUNGAL INFECTIONS” (Cidara Therapeutics, Inc., priority 2016, published 2019).
≈ marks a conversion by molar mass, not a printed value. Where “and” joins values, the source holds several entries; their conditions need not be identical. Equal entries are not always repeated. Starred links: 1 amine or outer side, 2 acyl side, 3 side chain; linkers in the order of their positions; H or OH if unused. Positions of bridges follow the written chain, without caps; N, C: chain ends. Non-standard residues stand in square brackets, D forms with d. Residues, ends and D or L forms follow the SMILES beside them. *: point of attachment. pTerphenylCO(4''-OnC5H11) = CCCCCOc1ccc(-c2ccc(-c3ccc(C(=O)*)cc3)cc2)cc1; Orn(4R-OH,5R-OH) = O=C([C@H](C[C@@H](O)[C@@H](O)N[*:3])N[*:1])[*:2]; hTyr(3S-OH,4S-OH) = N[C@H](C(=O)O)[C@H](O)[C@@H](O)c1ccc(O)cc1; Pro(3S-OH,4S-Me) = C[C@H]1CN[C@H](C(=O)O)[C@H]1O; Hyp = O=C(O)[C@@H]1C[C@@H](O)CN1

Columns and labels:
C. albicans = assay: In vitro susceptibility testing (CLSI M27-A3), C. albicans; format: cell-based; settings: Candida albicans, 24 h
Procedure: (§1) Ten clinical Candida strains were used for the in vivo treatment studies, including four C. albicans, three C. glabrata, and three C. parapsilosis strains (Table 15). This group was selected to encompass phenotypic variability in susceptibility to triazoles and echinocandins and based on similar fitness in the animal model as defined by the amount of growth in control animals over 24 h. The organisms were maintained, grown, and quantified on Sabouraud's dextrose agar (SDA) plates.
(§2) In vitro susceptibility testing. All isolates were tested in accordance with the standards in CLSI document M27-A3. The MICs were determined visually after 24 h of incubation as the lowest concentration of drug that causes a significant diminution (50%) of growth compared to controls. MICs were determined on three separate occasions in duplicate.

C. parapsilosis = assay: In vitro susceptibility testing (CLSI M27-A3), C. parapsilosis; format: cell-based, Candida parapsilosis; settings: Lodderomyces parapsilosis, 24 h
Procedure: as §1, §2

C. glabrata = assay: In vitro susceptibility testing (CLSI M27-A3), C. glabrata; format: cell-based, Candida glabrata; settings: Nakaseomyces glabratus, 24 h
Procedure: as §1, §2

A. fumigatus AF293 [1] = assay: Pulmonary aspergillosis, prophylaxis, neutropenic ICR mice (Examples 17, 18), survival; format: in vivo, Aspergillus fumigatus
Procedure: Intranasal infection with A. fumigatus AF293 (10^5 CFU/mouse) on Day 0. Prophylaxis CD101 as a single dose (IP; 5, 10, 20 mg/kg) or posaconazole (PO; 2 and 10 mg/kg) 1 day prior to infection. Survival monitored for 10 days.
Intranasal challenge with A. fumigatus AF293 (10^5 CFU/mouse) was initiated on Day 0 and prophylaxis with CD101 as a single dose (IP; 5, 10, 20 mg/kg) or posaconazole (PO; 2 and 10 mg/kg) was started 1 day prior to infection. Survival was monitored for 10 days.

A. fumigatus AF293 [2] = assay: Murine model of pulmonary aspergillosis (Example 19), survival; settings: for Mean Survival / Median Survival: Day 1 pre-infection
A. fumigatus AF293 [3] = assay: Murine model of pulmonary aspergillosis (Example 19), terminal lung burden; format: in vivo, Aspergillus fumigatus
Procedure: A secondary endpoint for the study was terminal lung tissue burden. Immediately following confirmation of death, carcasses were frozen at −20° C. prior to tissue dissection and processing. The frozen carcasses were thawed at room temperature, the lungs removed and placed into pre-weighed bead-beating tubes containing 2 mL of PBS and subjected to mechanical disruption. Organ homogenates were diluted further in PBS and quantitatively cultured for A. fumigatus onto SABC and incubated at 30° C. for 24-48 hours.
2. Lung tissue burden data were analysed using the non-parametric Kruskal-Wallis test and if this was statistically significant all pairwise comparisons were analyzed (Conover-Inman).

[4] = system: Aspergillus fumigatus (ATCC 13073); assay: Prophylaxis, neutropenic ICR mouse disseminated aspergillosis model, survival; settings: amphotericin B at 3 mg/kg IP administered one hour after infection
[5] = system: Aspergillus fumigatus (ATCC 13073); assay: Neutropenic mouse aspergillosis model, survival; format: in vivo; settings: AmB 2 mg/kg IP one dose; 10 days
C. auris = assay: Murine model of disseminated candidiasis, C. auris infection, kidney CFU and survival; format: in vivo, Candida auris; settings: amphotericin B 0.3 mg/kg IP, 2 doses; Day 14
[6] = Vehicle vs. Posaconazole 10 mg/kg
[7] = Posaconazole 10 mg/kg PO Day −1

SMILES: CCCCCOc1ccc(-c2ccc(-c3ccc(C(=O)N[C@H]4C[C@@H](O)[C@@H](O)NC(=O)[C@@H]5[C@@H](O)[C@@H](C)CN5C(=O)[C@H]([C@@H](C)O)NC(=O)[C@H]([C@H](O)[C@@H](O)c5ccc(O)cc5)NC(=O)[C@@H]5C[C@@H](O)CN5C(=O)[C@H]([C@@H](C)O)NC4=O)cc3)cc2)cc1 [Anidulafungin, anidulafungin, reference compound] ({pTerphenylCO(4''-OnC5H11)}-[Orn(4R-OH,5R-OH)]T[Hyp][hTyr(3S-OH,4S-OH)]T[Pro(3S-OH,4S-Me)]; lactam 1-C)
- MIC (C. albicans; C. albicans 98-17): 0.03 µg/mL (≈ 0.0263 µM)
- MIC (C. albicans; C. albicans 98-210): 0.015 µg/mL (≈ 0.0132 µM)
- MIC (C. albicans; C. albicans 580): 0.015 µg/mL (≈ 0.0132 µM)
- MIC (C. albicans; C. albicans K-1, 50% growth diminution): 0.015 µg/mL (≈ 0.0132 µM)
- MIC (C. parapsilosis; C. parapsilosis 20423.072): 1 µg/mL (≈ 0.877 µM)
- MIC (C. parapsilosis; C. parapsilosis 20477.048): 2 µg/mL (≈ 1.75 µM)
- MIC (C. parapsilosis; C. parapsilosis 20519.069): 4 µg/mL (≈ 3.51 µM)
- MIC (C. glabrata; C. glabrata 5592): 0.06 µg/mL (≈ 0.0526 µM)
- MIC (C. glabrata; C. glabrata 10956): 1 µg/mL (≈ 0.877 µM)
- MIC (C. glabrata; C. glabrata 35315): 0.25 µg/mL (≈ 0.219 µM)

SMILES: CC[C@@H]([C@H](C)O)n1ncn(-c2ccc(N3CCN(c4ccc(OC[C@@H]5CO[C@@](Cn6cncn6)(c6ccc(F)cc6F)C5)cc4)CC3)cc2)c1=O [Posaconazole, posaconazole]
- survival (A. fumigatus AF293 [1]; posaconazole 2 mg/kg PO 1 day prior to infection): no survivors
- survival rate relative to control (A. fumigatus AF293 [1]; posaconazole 10 mg/kg PO 1 day prior to infection): statistically-significant increase in survival rate relative to control
- survival time post infection, range (A. fumigatus AF293 [2]; Posaconazole 2 mg/kg PO once): 69 to 114 h
- Mean Survival (A. fumigatus AF293 [2]; Posaconazole 2 mg/kg PO once): 77.5 h
- Median Survival (A. fumigatus AF293 [2]; Posaconazole 2 mg/kg PO once): 69.0 h
- survival time post infection, range (A. fumigatus AF293 [2]; Posaconazole 10 mg/kg PO once): 69 to 240 h
- Mean Survival (A. fumigatus AF293 [2]; Posaconazole 10 mg/kg PO once): 212 h and 211.5 h
- Median Survival (A. fumigatus AF293 [2]; Posaconazole 10 mg/kg PO once): cannot estimate
- mice surviving to the end of the study (A. fumigatus AF293 [2]; Posaconazole 10 mg/kg PO, 6/treatment group, 10 days): 5
- Wilcoxon (Peto-Prentice) test, survival (A. fumigatus AF293 [2]; Vehicle vs. Posaconazole 2 mg/kg): P = 0.0391
- Log-Rank test, survival (A. fumigatus AF293 [2]; [6]): P = 0.0182
- Wilcoxon (Peto-Prentice) test, survival (A. fumigatus AF293 [2]; [6]): P = 0.0441
- survival compared to the vehicle mice (A. fumigatus AF293 [2]; posaconazole 2 mg/kg once one day pre-infection): did not show any improvement in survival
- mice surviving to the end of the study (A. fumigatus AF293 [2]; posaconazole 10 mg/kg once 1 day pre-infection): > 80%
- Group Geometric mean (lung burden) (A. fumigatus AF293 [3]; Posaconazole 2 mg/kg PO Day −1): 1.14 × 10^4 CFU/g
- Log10 Group Geometric mean (lung burden) (A. fumigatus AF293 [3]; Posaconazole 2 mg/kg PO Day −1): 4.06 CFU/g
- Log10 reduction from vehicle control (A. fumigatus AF293 [3]; Posaconazole 2 mg/kg PO Day −1): 0.11 CFU/g
- Group Geometric mean (lung burden) (A. fumigatus AF293 [3]; [7]): 2.75 × 10^3 CFU/g
- Log10 Group Geometric mean (lung burden) (A. fumigatus AF293 [3]; [7]): 3.44 CFU/g
- Log10 reduction from vehicle control (A. fumigatus AF293 [3]; [7]): 0.73 CFU/g

SMILES: C[C@@H]1[C@H](O)[C@@H](C)/C=C/C=C/C=C/C=C/C=C/C=C/C=C/[C@H](O[C@@H]2O[C@H](C)[C@@H](O)[C@H](N)[C@@H]2O)C[C@@H]2O[C@](O)(C[C@@H](O)C[C@@H](O)[C@H](O)CC[C@@H](O)C[C@@H](O)CC(=O)O[C@H]1C)C[C@H](O)[C@H]2C(=O)O [AmB, amphotericin B, reference compound]
- 14-day survival [4]: significant increase in the 14-day survival
- survival vs vehicle [5]: significantly longer survival than vehicle
- percent survival at the end of the study (C. auris): 30%
